Usually pIC50 stands for the IC50 on a negative log10 scale, so that one unit is a factor of ten.

For one series, the system named is CYP2D6. Conditions: background statement; cited from earlier work.
The subject of the next series is norepinephrine reuptake. The settings on record: background statement, cited from earlier work.
For series [1] the following is noted: cited from earlier work.
The subject of a further series is 5-HT2C receptor. The settings on record: background statement; cited from earlier work.
The conditions of series [2]: background statement; cited from earlier work.
For a further series, the system named is dopamine. Conditions: background statement; cited from earlier work.
The next series has as its target norepinephrine receptor (Homo sapiens, UniProt P23975). The settings on record: read-out: norepinephrine reuptake inhibition IC50, HEK-293T cells stably expressing the norepinephrine receptor, 30 min drug incubation, 37 °C, 30 min kinetic fluorescence reading. The method, then:
The norepinephrine reuptake ability in a cell line expressing the norepinephrine receptor was confirmed using a kit (Neurotransmitter Transporter Uptake Assay Kit, Molecular Devices) composed of a fluorescent material that mimics amine neurotransmitters and a masking dye.
First, HEK-293T cells stably expressing the norepinephrine receptor were seeded in a 96-well Black/Clear Bottom Plate to contain 6×10^4 cells in 100 μl of cell culture medium per well. After incubating for 20 hours in a 37 °C, 5% CO2 incubator to allow the cells to properly attach and stabilize on the plate, the cell culture medium was removed, and 100 μl of an HBSS+0.1% BSA with 20 mM HEPES aqueous solution in which a drug of a target concentration was dissolved was dispensed into each well. For the control group, 100 μl of a drug-free buffer solution (HBSS+0.1% BSA with 20 mM HEPES aqueous solution) was dispensed. The plate was incubated for 30 minutes in a 37 °C, 5% CO2 incubator to allow the drug to sufficiently react with the receptor.
Thereafter, fluorescence was measured for a total of 30 minutes in Kinetic reading mode at Ex/Em=440 nm/520 nm using a fluorescence plate reader (SpectraMax®). The measured fluorescence intensity value was converted into a value of “reuptake inhibition rate (%)” using the following formula, and then a dose-response curve was plotted through 4-parameter (Log) logistic regression, and the IC50 value for each drug was calculated and compared (FIGS. 4 and 5).

Series [3] can be described thus: Thermal stability test (content by HPLC, visual discoloration). Format: physicochemical. The settings on record: for Content at 0 weeks / remaining at 1344 h / Content after 8 weeks: HPLC; for Content at 0 weeks: start of storage at 40±2 °C and 75±5% RH; for remaining at 1344 h: solid, 75% rh, read-out: Content after 8 weeks; for remaining at 1344 h / Content after 8 weeks: 8 weeks at 40±2 °C and 75±5% RH, opaque glass vials; for Discoloration: visual, after 8 weeks at 40±2 °C and 75±5% RH; for Content after 8 weeks: 80640 min. Here is the method: 8 mg each of the viloxazine hydrochloride of Comparative Examples 1 and 2, and the novel salts of (S)-viloxazine of Examples 6 to 16 were placed into opaque glass vials and stored at 40±2 °C and 75±5% RH. After 8 weeks, each sample was taken out, its content was analyzed by high-performance liquid chromatography (HPLC), and the presence of discoloration was visually confirmed (Table 2).

The test system of series [4] is attention-deficit/hyperactivity disorder (ADHD). The settings on record: clinical trials, patients with ADHD, versus placebo; cited from earlier work.
For another series, the system named is 5HT2B receptor. The settings on record: background statement; cited from earlier work.

pIC50: −log10 of the molar value. Structures can show the parent of a compound that is named as a salt. Where two headings read alike, the source gives them in different places.

Sequence of norepinephrine receptor (P23975 whole entry): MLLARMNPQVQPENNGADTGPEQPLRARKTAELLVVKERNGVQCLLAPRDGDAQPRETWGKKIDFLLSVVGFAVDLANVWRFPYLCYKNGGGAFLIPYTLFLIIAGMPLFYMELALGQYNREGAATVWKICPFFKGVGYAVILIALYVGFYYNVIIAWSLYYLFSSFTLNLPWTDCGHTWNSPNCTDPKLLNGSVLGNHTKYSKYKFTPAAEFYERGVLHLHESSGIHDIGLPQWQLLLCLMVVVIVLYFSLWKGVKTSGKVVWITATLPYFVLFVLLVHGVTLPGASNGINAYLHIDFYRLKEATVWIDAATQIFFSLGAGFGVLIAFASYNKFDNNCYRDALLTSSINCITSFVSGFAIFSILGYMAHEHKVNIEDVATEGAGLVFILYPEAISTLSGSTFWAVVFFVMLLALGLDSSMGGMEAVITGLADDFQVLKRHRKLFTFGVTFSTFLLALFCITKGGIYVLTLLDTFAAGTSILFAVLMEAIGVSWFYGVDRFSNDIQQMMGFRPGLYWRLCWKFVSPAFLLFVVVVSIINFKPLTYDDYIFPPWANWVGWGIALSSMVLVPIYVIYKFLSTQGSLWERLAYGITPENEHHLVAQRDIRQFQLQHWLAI

On to `CCOc1ccccc1OCC1CNCCO1` (racemic) [Comparative Example 1, (R,S)-viloxazine hydrochloride], for which, in the series on CYP2D6, the metabolizing enzyme entry is listed as “metabolized through the CYP2D6 enzyme”. In the series on norepinephrine reuptake (listed as Racemic viloxazine hydrochloride), the “norepinephrine reuptake inhibition (in words)” value is reported as “selective inhibition of norepinephrine reuptake”. In addition, in the series with norepinephrine reuptake (hydrochloride), the “norepinephrine reuptake inhibition (in words)” value is “selectively inhibits norepinephrine reuptake”. The “suicidal ideation or suicide risk” value in series [1] (during initial treatment or dosage adjustment) was “increased risk of suicidal ideation or suicide”. The “risk in patients with bipolar disorder” value in series [1] (patients with bipolar disorder) is given as “risk of worsening symptoms in patients with bipolar disorder”. Moreover, in series [1] (patients), the “most common side effects” value is “drowsiness, reduced appetite, fatigue, nausea, and insomnia”. The “heart rate and blood pressure” value in series [1] (some of the patients administered viloxazine HCl) is “increase in heart rate and blood pressure”. Moreover, the “risk of drug abuse, dependence, or withdrawal symptoms” value in [1] (upon treatment discontinuation) was “low risk of drug abuse, dependence, or withdrawal symptoms”. For the same molecule, the “activity at 5-HT2C receptor” value in the series with 5-HT2C receptor is listed as 5-HT2C receptor agonist. For the same molecule, the “route of excretion of metabolites” value in series [2] was “majority of its metabolites are excreted through urine”. Further, in the series on dopamine, the effect on dopamine entry is given as “low effect on dopamine”. In addition, on norepinephrine receptor, the pIC50 was 4.20. Besides, in series [3], the “Content at 0 weeks” value is reported as 99.5% and the remaining at 1344 h was 98.7%. The Discoloration result in [3] (hydrochloride) was “discolored to an off-white color”. Further, in [4], the “clinical efficacy in ADHD symptoms” value is “showed improved symptoms compared to patients who took a placebo”. The “activity at 5HT2B receptor” value in the series with 5HT2B receptor is reported as 5HT2B receptor antagonist.

As to `CCOc1ccccc1OC[C@H]1CNCCO1` [Comparative Example 2, (R)-viloxazine hydrochloride, reference compound], at norepinephrine receptor, the pIC50 is 3.97. Further, in series [3], the “Content at 0 weeks” value is listed as 99.2% and the remaining at 1344 h is 98.1%. Besides, the Discoloration result in series [3] (hydrochloride) is listed as “discolored to an off-white color”.

Regarding `CCOc1ccccc1OC[C@@H]1CNCCO1` [Example 6, (S)-viloxazine hydrochloride], on norepinephrine receptor (hydrochloride), the pIC50 is 4.65. Further, in series [3] (hydrochloride), the “Content at 0 weeks” value amounted to 99.5%. Besides, the remaining at 1344 h in series [3] was 99.2%.

`CCOc1ccccc1OC[C@@H]1CNCCO1` [Example 7, (S)-viloxazine sulfate]: the pIC50 on norepinephrine receptor is 4.53. For the same molecule, in series [3], the “Content after 8 weeks” value is 98.6% and the “Content at 0 weeks” value was found to be 99.3%.

Regarding `CCOc1ccccc1OC[C@@H]1CNCCO1` [Example 8, (S)-viloxazine hydrobromide], the pIC50 at norepinephrine receptor (hydrobromide) is 4.41. Further, in series [3] (hydrobromide), the “Content after 8 weeks” value was found to be 99.0% and the “Content at 0 weeks” value was determined as 99.2%.

Take `CCOc1ccccc1OC[C@@H]1CNCCO1` [Example 9, (S)-viloxazine nitrate]: the pIC50 at norepinephrine receptor was 4.38. For the same molecule, in series [3], the “Content after 8 weeks” value was 97.7% and the “Content at 0 weeks” value was found to be 98.2%.

As to `CCOc1ccccc1OC[C@@H]1CNCCO1` [Example 10, (S)-viloxazine acetate], the pIC50 at norepinephrine receptor was 4.61. Moreover, in series [3], the “Content after 8 weeks” value is reported as 99.3% and the “Content at 0 weeks” value amounted to 99.6%.

As to `CCOc1ccccc1OC[C@@H]1CNCCO1` [Example 11, (S)-viloxazine trifluoroacetate], the pIC50 on norepinephrine receptor was 4.47. Besides, in [3], the “Content after 8 weeks” value is listed as 98.5% and the “Content at 0 weeks” value was 99.0%.

Turning to `CCOc1ccccc1OC[C@@H]1CNCCO1` [Example 12, (S)-viloxazine oxalate], the pIC50 on norepinephrine receptor is 4.46. In series [3], the “Content after 8 weeks” value worked out at 98.6% and the “Content at 0 weeks” value came out at 99.1%.

With `CCOc1ccccc1OC[C@@H]1CNCCO1` [Example 13, (S)-viloxazine fumarate], the negative logarithm of the IC50 (pIC50) at norepinephrine receptor is 4.44. In addition, in series [3], the “Content after 8 weeks” value is on record as 98.5% and the “Content at 0 weeks” value worked out at 99.0%.

In the case of `CCOc1ccccc1OC[C@@H]1CNCCO1` [Example 14, (S)-viloxazine maleate], the pIC50 at norepinephrine receptor was 4.54. Moreover, in series [3], the “Content after 8 weeks” value came to 98.5% and the “Content at 0 weeks” value amounted to 99.1%.

Consider `CCOc1ccccc1OC[C@@H]1CNCCO1` [Example 15, (S)-viloxazine citrate], for which the pIC50 on norepinephrine receptor is 4.40. In series [3], the “Content after 8 weeks” value is listed as 98.6% and the “Content at 0 weeks” value was 99.0%.

As to `CCOc1ccccc1OC[C@@H]1CNCCO1` [Example 16, (S)-viloxazine methanesulfonate], in series [3], the “Content after 8 weeks” value is reported as 98.0 → 98.0% and the “Content at 0 weeks” value is given as 98.0 → 98.0%.

The record behind these values is US20260364081A1, “METHOD FOR PREVENTING OR TREATING ATTENTION DEFICIT HYPERACTIVITY DISORDER (ADHD) AND FOR PREPARING A COMPOUND OR SALT THEREOF” (ASTROGEN, INC., priority 2023, published 2026).
